In US20230190663A1, “PRUSSIAN BLUE NANOPARTICLES FUNCTIONALIZATION WITH LATENCY REVERSING AGENTS AND BROADLY NEUTRALIZING ANTIBODIES, AND APPLICATIONS THEREOF” (THE GEORGE WASHINGTON UNIVERSITY, priority 2020, published 2023):

Tests used:
J-LAT cells [1] = assay: Latency reversal (GFP expression) in J-LAT cells, a model of latent HIV cells; type: cell-based
Description: To determine the efficiency of free Poly I:C compared to PolyIC-PBNPs on HIV reactivation, increasing concentrations were added to J-LAT cells. Specifically, nanoparticles (PolyIC-PBNP) were generated at varying Poly I:C concentrations (1.75, 1, 1.5 and 0.75 mg/mL) and added to the cell culture medium to treat the J-LAT cells.

J-LAT cells [2] = assay: Viability / cytotoxicity of treated J-LAT cells; details: 1-15 μL, not transfected, FIG. 4B
Description: Example 3. […] J-LAT cells harbor latent, transcriptionally competent HIV provirus that encodes green fluorescent protein (GFP) as an indicator of HIV-1 reactivation. […] Generally for effective latency reversal, free Poly I:C has to be delivered into the cytoplasm of the latently infected cells via transfection.
Next, J-LAT cells were treated with increasing concentrations of Citrate-PBNP, PEI-PBNP or polyIC-PBNP (1 μL, 5 μL, 10 μL and 15 μL with [PBNP]=2 mg/mL and [polyIC]=0.5 mg/mL) where the PBNPs were added to the cell media (i.e., the PBNPs were not transfected into the cells).

[3] = tested on: peripheral blood mononuclear cells (PBMCs); assay: Flow cytometry of immune cell ratios and activation in treated PBMCs; type: cell-based, human; details: compared to untreated PBMCs, FIG. 6G
Description: Example 4. Primary peripheral blood mononuclear cells (PBMCs) were isolated from blood collected from healthy human donors. PBMCs were incubated with increasing concentrations of Poly-PBNP (50, 5 and 1 μg/mL of attached PolyIC) and same concentrations of Free-Poly I:C overnight. PMA (Phorbol 12-myristate 13-acetate), a known immune-stimulator, was used as positive control herein. Following this treatment, the number of viable cells was assessed.
Treated PBMCs were subjected to flow cytometry to examine ratios of immune cells in response to Poly-PBNP and Free-Poly I:C treatments. […] There was no change in the amount of NK cells (CD56+ cells) for any of the treatment groups studied, compared to untreated PBMCs (FIG. 6F).

Substance: polyinosinic-polycytidylic acid [Free Poly I:C]
- Hill Slope (best-fit value) (J-LAT cells [1]; HIV reactivation in J-LAT cells, overnight, log(agonist) vs. normalized response, variable slope): 1.904
- latency reversal at increasing concentrations (J-LAT cells [1]; J-LAT cells, 1, 5, 10 and 15 μL added to cell media, not transfected, FIG. 4A): reversed latency in a dose dependent manner
- EC50 of HIV reactivation (GFP expression) (J-LAT cells [1]; J-LAT cells, overnight incubation, Table 1 prints none): 6.944 µg/mL
- cytotoxicity at increasing concentrations (J-LAT cells [2]): caused cytotoxicity at higher concentrations
- NK cells activation (CD56+CD69+) [3]: no changes
